Patent US20020032183A1, “Use of (di-substituted-phenyl)-pyrimidinyl-imidazole derivatives as JNK-inhibitors” (priority 2000, published 2002)

Columns and labels:
[1] = test system: Rat superior cervical ganglion neurons; assay: Sympathetic neuronal survival assay (no NGF exposure; GAP-43 ELISA and cell counts); assay type: cell-based; settings: for Survival, ELISA Data Mean / Survival, Cell Counts Mean: 48 hours; for Survival, ELISA Data Mean: GAP-43 ELISA; for Survival, Cell Counts Mean: immunostained neurons per well
Procedure: (§1) Activation of c-jun-N-terminal kinase (JNK) has been implicated in apoptosis in sympathetic neurons. An inhibitor of JNK, Example 2, was tested for neuroprotective effects in two models of sympathetic neuronal cell death.
In the first model, ganglia were dissociated and plated directly into culture plates in the presence of compound for 48 hours, then fixed and survival assayed using an ELISA for GAP-43. This model will hereafter be referred to as the ‘survival assay’.
(§2) Ganglia were enzymatically dissociated using 0.25% trypsin for 45 minutes. The trypsin was then inhibited using Dulbecco's MEM (DMEM) supplemented with 10% fetal bovine serum, and the cells mechanically triturated using a pipette tip to form a single cell suspension. Neurons in the suspension were counted using a haemocytometer, and plated at a density of 3000-5000 neurons per well in poly-D-lysine and laminin coated 96 well tissue culture clusters in DMEM supplemented with B27 serum substitute. Cultures were then incubated at 37° C./5% CO2. One hour following plating, cultures were either treated with NGF 25 ng/ml or with L-790,984 at a range of concentrations for the NGF deprivation and survival assays respectively.
(§3) Cultures for the NGF deprivation assay were returned to the incubator for 4 days. Following this, the medium was aspirated, plates washed once with DMEM/B27, and the cultures treated with Example 2 at concentrations ranging from 1 nM to 10 μM, together with an anti-NGF blocking antibody at 250 ng/ml. Cultures were then returned to the incubator for a further 72 hours prior to fixation and survival quantification. Cultures treated with Example 2 immediately for the survival assay were returned to the incubator for 48 hours; cultures were then fixed and survival quantified using the GAP-43 ELISA.
(§4) Cultures were fixed by the addition of an equal volume 4% paraformaldehyde to each well for 10 minutes; this was then aspirated, and replaced by a further volume of 4% paraformaldehyde for a further 20 minutes at room temperature. Plates were then washed three times with PBS/0.3% TX100, and non-specific binding sites blocked by the addition of 5% normal horse serum (NHS) in PBS/0.3% TX100. Plates were incubated at room temperature for one hour, then the blocking serum was aspirated without washing and replaced with primary antibody. The primary antibody used was a mouse monoclonal antibody raised against Growth Associated Protein 43 (Sigma), prepared at a dilution of 1:500 in PBS/0.3% TX100/5% NHS. Primary antibody was added to all sample wells, with four control wells returned to blocking serum to act as minus primary control. Plates were then refrigerated overnight at 4° C. The next day, plates were washed three times with PBS/0.3 TX100 and secondary antibody added. The secondary antibody used was peroxidase conjugated sheep anti-mouse IgG, and was added at a dilution of 1:1000 in PBS/0.3% TX100/5% NHS. Plates were incubated for 1 hour at room temperature, then washed three times with PBS/0.3% TX100, and K-Blue insoluble peroxidase substrate added for 30 minutes at room temperature. The optical density of the plates was then read at 650 nm, and the survival of neurons calculated and expressed as percentage of the control response.
(§5) Cell counts were performed on one sample plate for each model of sympathetic neuronal cell death, by the addition of a tertiary antibody to the plate, followed by avidin-biotin complex and an insoluble peroxidase substrate. Following quantification of optical density, plates were washed three times in PBS/0.3% TX100, and non-specific sites blocked using PBS/0.3% TX100/5% normal rabbit serum (“NRS”). Plates were incubated for one hour at room temperature, then the blocking serum was aspirated and replaced with biotinylated rabbit anti-sheep IgG at a dilution of 1:500 in PBS/0.3% TX10O/5% NRS. […]

[2] = test system: Rat superior cervical ganglion neurons; assay: Sympathetic neuronal NGF deprivation assay (GAP-43 ELISA and cell counts); assay type: cell-based; settings: for Survival, Cell Counts Mean / Survival, ELISA Data Mean: 72 hours; for Survival, ELISA Data Mean: GAP-43 ELISA
Procedure: as §1
In the second model, ganglia were dissociated and plated in the presence of NGF 25 ng/ml for 4 days. The NGF was then removed by washing and application of a blocking antibody, and L-790,984 coadministered for 72 hours. Survival was then assayed using the GAP-43 ELISA. This model will be referred to hereafter as the ‘NGF deprivation assay’.
as §2, §3, §4, §5

SMILES: CCCn1c(C2CCN(C)CC2)nc(-c2ccc(Cl)c(Cl)c2)c1-c1ccnc(NC2CC2)n1 [Example 2, Cyclopropyl-{4-[5-(3,4-dichlorophenyl)-2-[(1-methyl)-piperidin]-4-yl-3-propyl-3H-imidazol-4-yl]-pyrimidin-2-yl}amine]
- Survival, ELISA Data Mean ([1]; 0.01 μM): 112.10
- Survival, Cell Counts Mean ([1]; 0.01 μM): 115.50
- Survival, ELISA Data Mean ([1]; 0.03 μM): 99.19
- Survival, Cell Counts Mean ([1]; 0.03 μM): 127.25
- Survival, ELISA Data Mean ([1]; 0.1 μM): 131.45
- Survival, Cell Counts Mean ([1]; 0.1 μM): 170.50
- Survival, ELISA Data Mean ([1]; 0.3 μM): 209.68
- Survival, Cell Counts Mean ([1]; 0.3 μM): 267.50
- Survival, ELISA Data Mean ([1]; 1 μM): 350.81
- Survival, Cell Counts Mean ([1]; 1 μM): 363.00
- Survival, ELISA Data Mean ([1]; 3 μM): 270.16
- Survival, Cell Counts Mean ([1]; 3 μM): 321.00
- Concentrations at which the survival response declines ([1]; data not shown): above 3 μM
- Concentrations at which the survival response was significant ([1]; quantified by ELISA): ≥ 300 nM
- Survival, Cell Counts Mean ([2]; 0.001 μM + anti-NGF 250 ng/ml): 82.00
- Survival, ELISA Data Mean ([2]; 0.001 μM + anti-NGF 250 ng/ml): 35.44
- Survival, Cell Counts Mean ([2]; 0.01 μM + anti-NGF 250 ng/ml): 81.00
- Survival, ELISA Data Mean ([2]; 0.01 μM + anti-NGF 250 ng/ml): 28.20
- Survival, Cell Counts Mean ([2]; 0.1 μM + anti-NGF 250 ng/ml): 53.75
- Survival, ELISA Data Mean ([2]; 0.1 μM + anti-NGF 250 ng/ml): 22.89
- Survival, Cell Counts Mean ([2]; 0.5 μM + anti-NGF 250 ng/ml): 140.25
- Survival, ELISA Data Mean ([2]; 0.5 μM + anti-NGF 250 ng/ml): 60.15
- Survival, Cell Counts Mean ([2]; 1 μM + anti-NGF 250 ng/ml): 200.00
- Survival, ELISA Data Mean ([2]; 1 μM + anti-NGF 250 ng/ml): 102.79
- Concentrations at which the survival response was significant ([2]; measured by ELISA): ≥ 500 nM
- Concentrations at which the survival response was significant ([2]; measured by cell counts): ≥ 500 nM
